According to paper PMC9065678, “BI 1015550 is a PDE4B Inhibitor and a Clinical Drug Candidate for the Oral Treatment of Idiopathic Pulmonary Fibrosis” (Frontiers in Pharmacology, 2022):

What was measured:
[1] = system: LPS-induced TNF-α release; assay: LPS-induced TNF-α release in human PBMCs; type: cell-based; conditions: 100 ng/mL LPS for 4 h
Method: Blood was donated by internal donors at the Center for Occupational Health at Boehringer Ingelheim in Biberach an der Riss, Germany; the donors provided signed informed consent that allows use for scientific purposes. All research was performed in accordance with the principles stated in the Declaration of Helsinki. Ethical approval was provided by the Federal State Medical Association of Baden-Württemberg, reference no. F-2016–121. For preparation of peripheral blood mononuclear cells (PBMCs), 200 mL freshly drawn human blood from healthy donors was mixed with 50 mL acid-citrate-dextrose solution (38 mmol/L citric acid, 75 mmol/L tri-sodium citrate and 121 mmol/L glucose) and 50 mL Hanks buffered saline solution (Thermo Fisher Scientific, Carlsbad, CA, United States), overlaid on Ficoll and centrifuged for 30 min at 300 x g. PBMCs were diluted in RPMI-1640 medium (Thermo Fisher Scientific) containing 6% (v/v) autologous plasma to a concentration of 5 × 10^6 cells/mL. […] Supernatants were taken and cytokines measured by enzyme-linked immunosorbent assay (ELISA; Becton Dickinson, Franklin Lakes, NJ, United States).

[2] = biological target: T1, PDE2A (Homo sapiens, UniProt O00408); assay: PDE2A inhibition screen at Eurofins Cerep; type: biochemical; conditions: screened at Eurofins Cerep
T1 construct: Eurofins Cerep

[3] = system: Col1A1 mRNA expression; assay: TGF-β-induced Col1A1 mRNA expression in IPF lung fibroblasts (Taqman); type: cell-based, human; conditions: IPF-LF, TGF-β 4 ng/mL, 48 h; read-out: IC50 TGF-β-induced Col1 mRNA expression
Method: Fibroblasts from donors with IPF (IPF-LF) (Asterand, Detroit, MI, United States) were grown in fibroblast basal medium (CC-3131, Lonza Walkersville, Inc., Walkersville, MD, United States) supplemented with FGM-2 SingleQuot Kit Supplements and Growth Factors (CC-4126, Lonza). Cells were grown in a humidified incubator at 37°C and 5% CO2. All assays were performed at passage 7 or 8. For assay set-up, cells were seeded in fibroblast growth medium plus supplements in assay-relevant densities. For TGF-β-stimulated assays, cells were seeded at 4,500 cells per well in 96-well plates. Proliferation assays were performed in 96-well plates at an initial seeding cell density on day 0 of 2,000 cells per well. After 24-h, the cell culture medium was changed to starvation medium (fibroblast basal medium without supplements). […]
For determination of Col1A1, Col3A1, and FN mRNA expression, IPF-LF cells were stimulated with TGF-β (4 ng/mL) for 48 h. […] Quantitative real-time polymerase chain reactions were set up using the TaqMan™ Fast Advanced Master Mix (Applied Biosystems, Carlsbad, CA, United States) and species-specific gene expression assays: Col1A1 #Hs00164004_m1 FAM, Col3A1 #Hs0094309_m1 FAM, FN #Hs01549976_m1 FAM, 18S #4310893E. […] Fold-change of gene expression was calculated by the Viia7 software (regulation based upon housekeeper).

[4] = system: LPS-induced TNF-α release in whole blood ex vivo; assay: LPS-induced TNF-α release in whole blood ex vivo in mice; parameters: species or system mouse
Method: BI 1015550 was suspended in H2O plus three equivalents’ HCl (i.e. 66 µL HCl per mg of drug substance) to concentrations of […]. Female NMRI mice from Charles River (25–30 g) were used. Either vehicle (H2O plus three equivalents’ HCl) or BI 1015550 was administered orally (by gavage) in a volume of 10 mL/kg body weight resulting in final doses of 3.0, 1.0, 0.1, and 0.01 mg/kg body weight. 2 h after administration, the animals were anesthetized and blood was drawn by retroorbital puncture with heparinized capillaries before sacrifice by cervical dislocation. Blood was collected in Lithium-Heparin Microvettes® for anticoagulation. 100 µL of whole blood was pipetted into an Eppendorf tube containing either LPS solution (final concentration 900 ng/mL) or solvent. Subsequently, the samples were placed for 4 h in an incubator at 37°C, […], and 95% humidity before plasma was prepared by a two-step centrifugation at 10.840 × g over 10 min at 4°C. TNF-α concentrations in the plasma samples were determined using a commercially available TNF-α ELISA kit (BD OptEIA™ Mouse TNF ELISA Set from Becton Dickinson) according to the manufacturer’s instructions.

T1 sequence (O00408 whole entry): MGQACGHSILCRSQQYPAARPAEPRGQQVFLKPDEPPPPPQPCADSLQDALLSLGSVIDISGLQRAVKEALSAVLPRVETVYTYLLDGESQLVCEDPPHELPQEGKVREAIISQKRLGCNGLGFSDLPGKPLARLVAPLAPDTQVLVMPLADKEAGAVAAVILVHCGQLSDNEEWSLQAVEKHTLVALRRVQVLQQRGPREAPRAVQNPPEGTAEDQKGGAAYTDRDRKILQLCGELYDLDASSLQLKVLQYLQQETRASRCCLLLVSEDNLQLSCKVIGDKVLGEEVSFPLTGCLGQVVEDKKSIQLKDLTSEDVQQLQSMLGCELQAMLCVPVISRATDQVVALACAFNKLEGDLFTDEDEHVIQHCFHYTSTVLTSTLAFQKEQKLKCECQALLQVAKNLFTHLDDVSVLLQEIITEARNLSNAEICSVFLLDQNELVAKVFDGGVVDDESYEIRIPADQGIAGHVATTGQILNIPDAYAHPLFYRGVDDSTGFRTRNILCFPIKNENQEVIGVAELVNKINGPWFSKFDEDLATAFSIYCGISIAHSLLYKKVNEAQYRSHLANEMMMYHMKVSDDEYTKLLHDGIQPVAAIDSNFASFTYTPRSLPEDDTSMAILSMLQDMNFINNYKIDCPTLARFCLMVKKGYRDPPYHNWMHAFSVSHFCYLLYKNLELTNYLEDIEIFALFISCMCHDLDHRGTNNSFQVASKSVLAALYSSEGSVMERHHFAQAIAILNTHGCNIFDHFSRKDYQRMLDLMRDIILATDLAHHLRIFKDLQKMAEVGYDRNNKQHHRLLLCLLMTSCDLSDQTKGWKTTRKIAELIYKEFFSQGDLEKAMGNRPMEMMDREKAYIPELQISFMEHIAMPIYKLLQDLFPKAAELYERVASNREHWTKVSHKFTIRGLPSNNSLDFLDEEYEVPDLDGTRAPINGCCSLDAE

[O-][S+]1CCc2nc(N3CCC(c4ncc(Cl)cn4)CC3)nc(NC3(CO)CCC3)c21 (centres unmarked) [BI 1015550]
IC50 [1]: 35 nM | Inhibition of human PDE2A [2]: did not inhibit | IC50 [3]: 269 nM | TNF-α concentration in plasma, inhibition in % given as negative number ([4]; 0.01 mg/kg p.o.): −38% | TNF-α concentration in plasma, inhibition in % given as negative number ([4]; 0.1 mg/kg p.o.): −50% | TNF-α concentration in plasma, inhibition in % given as negative number ([4]; 1.0 mg/kg p.o.): −83% | Inhibition of TNF-α ([4]; 3 mg/kg oral, initial experiment, data not shown): 93% | ED50 of LPS-induced TNF-α release ([4]; oral, blood taken 2 h after administration, LPS 4 h): 0.04 mg/kg
